Laboratory results published in patent US12013390B2, “EBIV nucleic acid composition and application thereof” (Wuhan Institute of Virology, Chinese Academy of Sciences, priority 2022, dated 2024).

test system: recombinant EBIV carrying green fluorescent protein; assay: Antiviral drug screening with green fluorescent recombinant EBIV in BHK-21 cells, fluorescence per well by high content screening; assay type: cell-based, Ebinur Lake virus (EBIV); conditions: Ebinur lake virus, BHK-21, 36 h, read-out: EC50 (half-maximal effect concentration)
Procedure: Further, the recombinant EBIV disclosed in the examples of the present application can also be used for the screening of antiviral drugs, for example for the screening of antiviral compounds. The specific steps were as follows.
(1) A 96-well plate for BHK-21 cells was prepared. The cells were planked at 10^4 cells/well. The plate was cultured in a cell incubator with a temperature of 37° C. and a CO2 concentration of 5%. The drug screening test was conducted when the cells grew to 40-50%. The drug to be tested was dissolved in dimethyl sulfoxide. Then the drug was diluted to 100 μM with DMEM medium containing 2% FBS. After that, the drug was subjected to serial 2-fold dilution to obtain the dilution gradient with the concentration of 100 μM, 50 μM, 25 μM, 12.5 μM, 6.25 μM, 3.125 μM, and 1.5625 μM, respectively (the concentration of DMSO in the diluted drug shall be <0.1%).
(2) The original culture medium was removed from the 96-well plate. The virus was inoculated into the 96-well plate at an MOI of 0.01 and a volume of 100 μL/well. At the same time, the diluted drugs to be tested were respectively added into the same 96-well plate at 100 μL/well and mixed well with the virus solution. The plate was incubated in a cell incubator with a temperature of 37° C. and a CO2 concentration of 5% for 36 hours before detection.
(3) The 96-well plate was photographed and data was analyzed using a high content screening (HCS) system to determine the amount of fluorescence per well and calculate the Z-factor for each compound:
[formula] where the four parameters σs, σc, μs, and μc represent the standard deviation and mean of the sample to be tested (s) and the negative (c) control, respectively. The stability and sensitivity of the screening system were then assessed using the Z′-factor:
[formula] where the four parameters σp, σn, μp, and μn represent the standard deviation and mean of the positive sample (p) and the negative (n) control, respectively.
(4) Cell viability per well (and the percentage of cells remaining per well) was observed under a microscope and the half-maximal effect concentration (EC50) of the drug was calculated using GraphPad Prism 9 software and an EC50 graph was plotted.

Molecule	EC50 [µM]
NC(=O)c1ncn([C@@H]2O[C@H](CO)[C@@H](O)[C@H]2O)n1 [ribavirin, reference compound]	21.9

same assay, conditions: even at 50 μM; BHK-21 cells, MOI 0.01, 36 hours

Molecule	inhibitory effect on the virus
NC(=O)c1nc(F)c[nH]c1=O [favipiravir, reference compound]	no inhibitory effect

same assay, conditions: high-content screening; compared with Z'-factor 0.46 of the system (25 μM ribavirin positive control)

Molecule	Z-factor
CC(C)=CCC(OC(=O)C=C(C)C)C1=CC(=O)c2c(O)ccc(O)c2C1=O (stereo not drawn) [Beta, beta-dimethyl acryl shikonin]	0.53
CC(C)=CCc1cc2c(cc1O)oc(=O)c1c3ccc(O)cc3oc21 [Psoralidin]	0.46
C=C[C@H]1[C@H](O[C@@H]2O[C@H](CO)[C@@H](O)[C@H](O)[C@H]2O)OC=C(C(=O)OC)[C@H]1CC(=O)O [Secoxyloganin]	0.56
C[C@@]12C(=O)OC(=O)[C@]1(C)[C@H]1CC[C@@H]2O1 [Cantharidin]	0.50
Clinodiside Aogenin A	0.54
C[C@H](CCC(=O)O)[C@H]1CC[C@H]2[C@@H]3[C@H](O)C[C@@H]4C[C@H](O)CC[C@]4(C)[C@H]3CC[C@]12C [Chenodeoxycholic acid, reference compound]	0.59
CC(C)=CCc1c(O)ccc(C(=O)/C=C/c2ccc(O)cc2)c1O [Isobavachalcone]	0.58
Oc1cc(O)c2c(c1)O[C@H](c1cc(O)c(O)c(O)c1)[C@H](O)C2 [Epigallocatechol]	0.51
COc1ccc(-c2cc(=O)c3c(O)cc(O[C@@H]4O[C@H](CO[C@@H]5O[C@@H](C)[C@H](O)[C@@H](O)[C@H]5O)[C@@H](O)[C@H](O)[C@H]4O)cc3o2)cc1O [Diosmin, reference compound]	0.58
